Measurements as given in ChEMBL document CHEMBL1201862, “PubChem BioAssay data set” (2004).
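48-hour exposure; five concentrations; linearly interpolated endpoints. The concentration for 50% growth inhibition is given as GI50.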 Calls of active or inactive are those of the source. Cut-off read from the data, not from the text of the source: active = GI50 up to about 1.1 µM and inactive = higher.

What was measured:
Experiment in all cases: NCI tumour cell line growth inhibition, 48 h
[1] = test system: KM-20L2
[2] = test system: HOP-18
[3] = test system: SNB-78
[4] = test system: RXF 631
[5] = test system: DMS-114
[6] = test system: M19-MEL
[7] = test system: LXFL 529
[8] = test system: XF498
[9] = test system: MDA-N

| SMILES | GI50 [1] | GI50 [2] | GI50 [3] | GI50 [4] | GI50 [5] | GI50 [6] | GI50 [7] | GI50 [8] | GI50 [9] |
| --- | --- | --- | --- | --- | --- | --- | --- | --- | --- |
| C(/C=C/N1CCCC1)=C\c1nc(N2CCCC2)c2ccccc2n1 | 24.9 µM (inactive) | 16.5 µM (inactive) | 20.7 µM (inactive) | 7.73 µM (inactive) | 18.5 µM (inactive) | 17 µM (inactive) | 14.7 µM (inactive) | – | – |
| CC(C)(C)C1(O)Cc2ccccc2C(=O)O1 (stereo not given) | > 100 µM (inactive) | > 100 µM (inactive) | > 100 µM (inactive) | > 100 µM (inactive) | > 100 µM (inactive) | > 100 µM (inactive) | > 100 µM (inactive) | – | – |
| C1CC2=C(C1)C1=S(S2)SC2=C1CCC2 | > 100 µM (inactive) | > 100 µM (inactive) | > 100 µM (inactive) | > 100 µM (inactive) | > 100 µM (inactive) | > 100 µM (inactive) | > 100 µM (inactive) | – | – |
| C/C=C/C=N/N(c1nnc(-c2ccccc2)c(-c2ccccc2)n1)S(=O)(=O)c1ccc(C)cc1 | 13.2 µM (inactive) | 14.2 µM (inactive) | 15.3 µM (inactive) | 17.5 µM (inactive) | 13 µM (inactive) | 13.2 µM (inactive) | 7.21 µM (inactive) | – | – |
| Cn1c2c(c3ccccc31)CCN(CCCCN1CCN(c3cccc(Cl)c3)CC1)C2=O | 4.17 µM (inactive) | 29 µM (inactive) | 2.88 µM (inactive) | – | 1.67 µM (inactive) | 11.5 µM (inactive) | 11.1 µM (inactive) | 14.4 µM (inactive) | – |
| CN(/N=C/c1ccnc2ccccc12)c1ccc([N+](=O)[O-])cc1[N+](=O)[O-] | > 100 µM (inactive) | > 100 µM (inactive) | 42.3 µM (inactive) | – | > 100 µM (inactive) | > 100 µM (inactive) | 42.6 µM (inactive) | > 100 µM (inactive) | – |
| O=C(/C=C/c1ccccc1)c1ccc(Cl)cc1Cl | 19.5 µM (inactive) | 22 µM (inactive) | 22.6 µM (inactive) | 38 µM (inactive) | 17.3 µM (inactive) | 23.4 µM (inactive) | 15.1 µM (inactive) | – | – |
| CC(=O)Oc1c(Br)ccc2cc(C(Br)Br)c(C(=O)c3ccccc3)nc12 | 19.4 µM (inactive) | 17.2 µM (inactive) | 27.7 µM (inactive) | 23.5 µM (inactive) | 24.8 µM (inactive) | 22.3 µM (inactive) | 30.6 µM (inactive) | 14.8 µM (inactive) | – |
| C=C(C)C1CC[C@]2(C(=O)O)CCC3(C)[C@H](CCC4[C@@]5(C)CC[C@H](OC6OC(CO)C(O)C6OC6OC(C)C(O)C(O)C6O)[C@@](C)(CO)C5CC[C@]43C)C12 (stereo not given in full) | > 100 µM (inactive) | – | > 100 µM (inactive) | > 100 µM (inactive) | > 100 µM (inactive) | > 100 µM (inactive) | > 100 µM (inactive) | > 100 µM (inactive) | – |
| CC(=O)OC1CC(n2cc(F)c(=O)[nH]c2=O)OC1CO (stereo not given) | 0.962 µM (active) | 6.61 µM (inactive) | > 100 µM (inactive) | – | 1.36 µM (inactive) | > 100 µM (inactive) | 0.575 µM (active) | 13.7 µM (inactive) | 24.3 µM (inactive) |
| CCCCC1CC(c2cccc([N+](=O)[O-])c2)=NO1 (stereo not given) | > 100 µM (inactive) | 80.4 µM (inactive) | > 100 µM (inactive) | 80.7 µM (inactive) | 40.6 µM (inactive) | 74.6 µM (inactive) | 56.5 µM (inactive) | – | – |
| CC(C)=C1CCC(CN(C)C)C1=O (stereo not given) | 13.7 µM (inactive) | 22.1 µM (inactive) | > 10 µM (inactive) | 13.6 µM (inactive) | 16.5 µM (inactive) | 47.2 µM (inactive) | 12.8 µM (inactive) | – | – |
| CC(C)(C)OC(=O)Cc1ccc2c(ccn2Cc2ccccc2)c1 | 26.3 µM (inactive) | > 100 µM (inactive) | > 100 µM (inactive) | 25.9 µM (inactive) | 18.7 µM (inactive) | 62.4 µM (inactive) | 46.7 µM (inactive) | – | – |
| O=C(O)CCC1CCc2cccc(OCC(=O)O)c2C1=O (stereo not given) | > 100 µM (inactive) | > 100 µM (inactive) | > 100 µM (inactive) | – | > 100 µM (inactive) | > 100 µM (inactive) | > 100 µM (inactive) | > 100 µM (inactive) | – |
